Measured values taken from ChEMBL document CHEMBL1201862, “PubChem BioAssay data set” (2004).
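Grown in 96-well plates, cells were treated for 48 hours with each compound at five concentrations. Insufficient inhibition: endpoint recorded as highest concentration tested. GI50 = concentration required for 50% inhibition of growth.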 Calls of active or inactive are those of the source. Cut-off read from the data, not from the text of the source: active = GI50 up to about 1.1 µM and inactive = higher.

Key:
Test in all cases: inhibition of tumour cell growth, NCI panel, 48 h
[1] = system: SK-MEL-2
[2] = system: OVCAR-8
[3] = system: Hs-578T
[4] = system: SF-295
[5] = system: NCI-H226
[6] = system: SK-MEL-28
[7] = system: OVCAR-5
[8] = system: DU-145
[9] = system: COLO 205
[10] = system: MDA-MB-435
[11] = system: CCRF-CEM
[12] = system: PC-3
[13] = system: HCT-116
[14] = system: OVCAR-4
[15] = system: SW-620
[16] = system: HCT-15
[17] = system: SR
[18] = system: RXF 393
[19] = system: HOP-62
[20] = system: RPMI-8226

SMILES	GI50 [1]	GI50 [2]	GI50 [3]	GI50 [4]	GI50 [5]	GI50 [6]	GI50 [7]	GI50 [8]	GI50 [9]	GI50 [10]	GI50 [11]	GI50 [12]	GI50 [13]	GI50 [14]	GI50 [15]	GI50 [16]	GI50 [17]	GI50 [18]	GI50 [19]	GI50 [20]
CC(C)O/N=C/c1cc(NC(=S)OC(C)C)ccc1Cl	26 µM (inactive)	36.9 µM (inactive)	30.1 µM (inactive)	25.2 µM (inactive)	28.8 µM (inactive)	> 62.2 µM (inactive)	48.6 µM (inactive)	> 65.5 µM (inactive)	56.8 µM (inactive)	> 61.4 µM (inactive)	13.5 µM (inactive)	36.8 µM (inactive)	23.3 µM (inactive)	31.7 µM (inactive)	45.2 µM (inactive)	36.9 µM	16.1 µM (inactive)	20.6 µM (inactive)	37.8 µM (inactive)	13.8 µM (inactive)
CN(C)CC1CCC/C(=C\c2ccc(OC(=O)/C=C/c3ccccc3)cc2)C1=O (stereo not given)	3.52 µM (inactive)	2 µM (inactive)	3.28 µM (inactive)	3.56 µM (inactive)	2.96 µM (inactive)	2.65 µM (inactive)	2.45 µM (inactive)	2.47 µM (inactive)	1.99 µM (inactive)	2.59 µM (inactive)	0.265 µM (active)	4.74 µM (inactive)	1.34 µM (inactive)	2.35 µM (inactive)	1.95 µM (inactive)	1.56 µM	0.796 µM (active)	1.93 µM (inactive)	3.48 µM (inactive)	0.656 µM (active)
O=C(O)c1nc2nc(Cl)c(Cl)nc2[nH]1	> 100 µM (inactive)	> 100 µM (inactive)	> 100 µM (inactive)	> 100 µM (inactive)	> 100 µM (inactive)	> 100 µM (inactive)	> 100 µM (inactive)	> 100 µM (inactive)	> 100 µM (inactive)	> 100 µM (inactive)	> 100 µM (inactive)	> 100 µM (inactive)	> 100 µM (inactive)	> 100 µM (inactive)	> 100 µM (inactive)	> 100 µM	> 100 µM (inactive)	> 100 µM (inactive)	> 100 µM (inactive)	> 100 µM (inactive)
NS(=O)(=O)c1ccc(N=C2C(=O)Nc3ccccc32)cc1	> 100 µM (inactive)	> 100 µM (inactive)	> 100 µM (inactive)	> 100 µM (inactive)	> 100 µM (inactive)	> 100 µM (inactive)	> 100 µM (inactive)	> 100 µM (inactive)	13.1 µM (inactive)	24.5 µM (inactive)	55.8 µM (inactive)	> 100 µM (inactive)	> 100 µM (inactive)	> 100 µM (inactive)	> 100 µM (inactive)	> 100 µM	67.8 µM (inactive)	> 100 µM (inactive)	> 100 µM (inactive)	> 100 µM (inactive)
CCCCOC(=O)NC(Nc1cccc(C(F)(F)F)c1)(C(F)(F)F)C(F)(F)F	35.5 µM (inactive)	57.4 µM (inactive)	44.7 µM (inactive)	26.6 µM (inactive)	53.7 µM (inactive)	> 100 µM (inactive)	> 100 µM (inactive)	> 100 µM (inactive)	45.7 µM (inactive)	33.8 µM (inactive)	29.6 µM (inactive)	68.7 µM (inactive)	> 100 µM (inactive)	99.8 µM (inactive)	64.3 µM (inactive)	45.2 µM	23.1 µM (inactive)	50.7 µM (inactive)	> 100 µM (inactive)	17.2 µM (inactive)
